Source: patent US10590166B2, “Peptides useable for treating cancer” (Allegro Pharmaceuticals, LLC, priority 2009, dated 2020)
Entries after “also recorded” stand apart in the source; their conditions may differ. Square brackets hold non-standard residues; d marks the D form. Peptide text beside a SMILES is read from it. Cya = N[CH](CS(=O)(=O)O)C(=O)O

Tests used:
rho/VEGF mice = experiment: Subretinal neovascularization in transgenic rho/VEGF mice expressing human VEGF; assay type: in vivo; settings: 25 μg, single intraocular injection, seven days post-dose, 3 animals
Experimental: Transgenic mice in which the rhodopsin promoter drives expression of human VEGF in photoreceptors (rho/VEGF mice) were randomized into separate treatment groups and studies were performed to provide the following comparisons:
Pretreatment measurements of the area of subretinal neovascularization were made on each animal using image analysis by a masked observer. Each animal received its designated treatment in a single intraocular injection. Seven days post-dose, measurements of the area of subretinal neovascularization were again made and compared to the pre-dose measurements to determine the change in subretinal neovascularization area. Also, the animals were sacrificed and the retinas were dissected, immunostained with GSA lectin and examined by fluorescence microscopy.

[1] = test system: human umbilical vein endothelial cells (HUVEC); experiment: wound-healing assay with HUVEC on fibronectin coated surface; assay type: cell-based
Experimental: To test the anti-adhesive properties of RGCysteic Acid peptides in vitro, a wound-healing assay was performed with human umbilical vein endothelial cells (HUVEC). HUVEC were seeded and allowed to grow to a confluent monolayer on a fibronectin coated surface. A wound (a scratch rift) was created by dragging a small pipette tip across the HUVEC monolayer. The cells were then incubated in fresh growth medium containing the RGCysteic Acid peptide (Compound 1; 10 mM), and the wound area was imaged in five different fields at various time points (0, 4, 8, 12, 16, 20, 24 hours) to determine the kinetics of wound closure. The level of wound closure was quantified by determining the fraction of the original wound area that was re-occupied by HUVEC through cellular adhesion, migration and proliferation.
In control studies, the following peptides were used in place of RGCysteic Acid (Compound 1): cyclic-RGD peptide (1 mM), positive control) and RGE peptide (1 mM, negative control).
The results are shown as a percentage of the original area. The error bars correspond to the standard deviation in wound size across 2-6 independent trials.

Rabbits = assay type: in vivo
Experimental: In this example, the PVD-Inducing Effects of RGD Peptides and Glycyl-Arginyl-Glycyl-Cysteic-Threonyl-Proline-COOH (RG Cysteic Acid Peptide; GRG Cysteic Acid TP; Compound 1) (SEQ ID NO: 2) were compared in rabbits. The protocol for this study was as follows:
Animal Model • a) 20 Male and Female Rabbits • b) Weighing approximately 1.5-2.5 kg. • c) Divide into 2 groups
i) 10 Rabbits were injected intravitreally with 2.5% RGD solution at pH=6.5 • a) 10 Right Eye injected with 2.5% RGD solution • b) 5 Left Eye used as BSS Control • c) 5 Left Eyes injected with 2.5% RGD+0.02% EDTA at pH=6.5
ii) 10 Rabbits were injected intravitreally with 2.5% RGCysteic solution at pH=6.5 • a) 10 Right Eye injected with 2.5% RGCysteic solution at pH=6.5 • b) 10 Left Eye injected with 2.5% RGCysteic solution+0.02% EDTA at pH=6.5
Active Chemicals • d) Sodium EDTA—99.0-100.5% from Spectrum Chemical Corp. • e) RG Cysteic Acid—cGMP supplier (Purity>98%). • f) RGD—cGMP supplier (Purity>98%). • g) BSS solution
Both the RG Cysteic Acid, RGD, RG Cysteic Acid+Sodium EDTA, RGD+Sodium EDTA, and the BSS solutions were injected into the vitreous cavity 24 hours prior to surgery. The rabbits ([…]) were anesthetized with an intramuscular injection of 2.0 ml of 1:1 combination of xylazine (100 mg/ml) and Ketamine hydrochloride (100 mg/ml). Pupils are dilated with topical cyclopentolate hydrochloride 1% and Phenylephrine hydrochloride 10%.
All animals were initially examined with slit lamp biomicroscopy and indirect ophthalmoscopy to exclude any animals with pre-existing vitreoretinal abnormalities. The intravitreal injection of 0.10 cc was administered 2 mm posterior to the limbus in the supranasal quadrant using a 30-gauge needle attached to a 1.0 cc syringe. Care must be taken to avoid damage to the lens or retina.
Twenty four hours following injection and immediately before initiation of a mechanical vitrectomy, a B-scan ultrasonography was performed to determine the status of the posterior vitreous and also the liquefaction of the vitreous. A two-port pars plana vitrectomy was performed using an infusion fiberoptic and a vitreous cutter attached to a vitrectomy unit. Following a 30 second core vitrectomy, the vitreous cutter was directed to the peripapillary retinal surface where, using low aspiration (<30 mmHg) a separation of the posterior cortical vitreous from the retinal surface was attempted in 4 quadrants. The sclerotomies were sutured and a postoperative B-Scan ultrasonography was carried out to determine the presence and extent of any PVD present in each quadrant. The animals were euthanized with intracardiac sodium pentobarbital injections, and the eyes were immediately enucleated.
; • Grade 0. a) No detachment of the posterior Vitreous is observed. • b) Vitreous Liquefaction • Grade 1. a) Consists of eyes in which the vitreous is detached in 2 or less quadrants. • b) Vitreous Liquefaction • Grade 2. a) Consists of eyes in which the vitreous is detached in 3 or more quadrants, but with remaining focal attachments along the medullary rays • b) Vitreous Liquefaction • Grade 3. a) Consists of eyes in which the vitreous is totally detached from the retinal surface • b) Vitreous Liquefaction
Care was taken to avoid damage to the adjacent retina and lens. The eyes were immersed in 2% paraformaldehyde plus 2.5% glutaraldehyde for a minimum of 24 hours at 4 degrees Celsius. A unique posterior calotte was removed, dehydrated in methanol, and dried in carbon dioxide to the critical point, sputter-coated in gold and photographed using the scanning electron microscope.

CNV mouse model = experiment: Suppression of laser-induced choroidal neovascularization, CNV mouse model; assay type: in vivo; settings: 14 days after laser; for size of CNV lesions: vs vehicle
Experimental: In this example, Compound 1 was tested to determine whether it CNV in a published mouse model. See, Umeda N, Kachi S, Akiyama H, Zahn G, Vossmeyer D, Stragies R, Campochiaro P., Suppression and Regression of Choroidal Neovascularization by Systemic Administration of an α5β1 Integrin Antagonist: Molecular Pharmacology:2006, 69, 1820-1828.
The study mice had laser-induced rupture of Bruch's membrane followed by an intravitreal injection of a single dose of COMPOUND 1 at the concentration of 1.0 μg/1 μL, 25 μg/1 μL and at 50 μg/1 μL, as well as a vehicle immediately after laser treatment. Fourteen days after laser treatment, the area of CNV was measured by image analysis. […] FIG. 8 is a graph showing total area of neovascularization in a CNV mouse model 14 days after treatment with various doses of Compound 1 and control (vehicle only).

[2] = Table B, single intravitreal 2.5 mg/100 μL, 24 hour follow up
[3] = Table B, single intravitreal 2.5 mg/100 μL, 24 hour follow up, share of eyes

CC(O)C(NC(=O)C(CS(=O)(=O)O)NC(=O)CNC(=O)C(CCCNC(=N)N)NC(=O)CN)C(=O)N1CCCC1C(=O)O (stereo not shown) [Compound 1, Glycinyl-Arginyl-Glycinyl-Cysteic-Threonyl-Proline-COOH] (H-GRG[Cya]TP-OH; configuration not given here)
greater reduction in subretinal neovascularization area than control animals (Phosphate Buffered Saline) (rho/VEGF mice): 37.06% | inhibition of cell adhesion ([1]; HUVEC wound healing model, in 12 hours): 74% | inhibition of HUVEC wound healing ([1]; after 24 hours, Compound 1 10 mM, control peptides 1 mM): 70% | apoptosis of the HUVEC cells ([1]; wound healing assay): without apoptosis | PVD grade (postoperative B-scan) (Rabbits; 2.5% intravitreal 0.10 cc, OD treated eye, 24 hours after injection, one value per animal, listed as RG Cysteic Acid): Grade 3 -; also recorded: Grade 2 - (Consists of eyes in which the vitreous is detached in 3 or more quadrants, but with remaining focal attachments along the medullary rays); also recorded: Grade 1 - (Consists of eyes in which the vitreous is detached in 2 or less quadrants.) | liquefaction of the vitreous (Rabbits; 2.5% intravitreally, 24 hours): completely liquefied | separation of the vitreous from the retina (Rabbits; 2.5% intravitreally, in 24 hours): complete separation of the vitreous from the retina | Ocular toxicity: RPE toxicity (Rabbits; [2]): No RPE toxicity | Ocular toxicity: cataract formation (Rabbits; [2]): No cataract formation | Ocular toxicity: exudates (Rabbits; [2]): No exudates | Ocular toxicity: inflammation (Rabbits; [2]): No inflammation | Ocular toxicity: retinal hemorrhage (Rabbits; [2]): No retinal hemorrhage | Ocular toxicity: retinal tears, breaks or detachments (Rabbits; [2]): No retinal tears, breaks | Ocular toxicity: retinal vascular compromise (Rabbits; [2]): No retinal vascular | Complete Liquefaction (Rabbits; [3]): PVD - 80% Complete | Total PVD (Rabbits; [3]): Group 1: - 60% Total | activity in inducing complete PVD and liquefying the vitreous, compared with RGD (Rabbits; rabbits, 2.5% intravitreal): equal or slightly better than that of RGD | activity when administered with 0.02% Sodium Edetate (Rabbits; rabbits, 2.5% intravitreal): not altered | adverse effects from the intravitreal injection (Rabbits; rabbits, 2.5% intravitreal): no adverse effects or adverse safety effects | size of CNV lesions (CNV mouse model; single intravitreal 1.0 μg/1 μL): somewhat smaller | reduction in CNV compared to vehicle treated eyes (CNV mouse model; single intravitreal 25 μg/1 μL, statistically significant): 43% | size of CNV lesions (CNV mouse model; single intravitreal 50 μg/1 μL): somewhat smaller
